One data set deals with rats. As to the kind of experiment: Hypothermia assay (FIG. 3A). The following applies: change in body temperature vs time after injection, compared to AM10843. It is filed as in vivo, rat.
For a further data set, the target named is T1, mCB2 (Mus musculus, UniProt P47936).
T1 construct: expressed in transfected cells; host or cells: HEK293
In words: mCB2 competition-equilibrium binding with [3H]CP-55,940, HEK293 membranes. As for the experimental part:
(§1) HEK293 cells expressing hCB1 or hCB2 or mCB2 receptor are used for membrane preparations according to Abadji et al. The resulting pellet is resuspended in 10 mM Tris-chloride, pH 7.4, with 5 mM MgCl2 and 2 mM EDTA (TME), rapidly frozen in liquid nitrogen and stored at −80° C. for no longer than two months. Protein content is assayed by using the Bio-Rad protein assay according to the manufacturer's protocol.
(§2) All the cannabinoids discussed in this invention are tested for their ability to bind to CB 1 and CB2 receptors using membranes from rat brain or HEK293 cells expressing either mCB2 or hCB2, respectively via competition-equilibrium binding using [^3H]CP-55,940. Results are analyzed using nonlinear regression to determine ligand IC50 (Prism by GraphPad Software, Inc.), and Ki values are calculated from the IC50. IC50 and Ki values are determined from at least three independent experiments.
(§3) Some disclosed compounds were tested for CB1 and CB2 receptor binding affinity, which can be represented by a Ki value. The Ki value is the affinity constant and describes the affinity of the compound for the receptor. […] A detailed description of the methods used to test binding affinity of compounds is given in US 2007/0135388 and in Papahatjis, et al., J. Med. Chem. (2007) 4048, the content of each of which is hereby incorporated by reference.

Data set [1] deals with T2, rCB1 (Rattus norvegicus, UniProt P20272). In words: cAMP assay, rCB1. It is filed as cell-based. As for the experimental part: (§4) Functional characterization of some of the disclosed compounds was performed by using the cyclic adenosine monophosphate (cAMP) assay. The functional potency of the compound in the cAMP assay is represented by the EC50 value. The lower the EC50 value, the higher the functional potency. A detailed description of the cyclic adenosine monophosphate (cAMP) assay is given in Nikas et al. J. Med. Chem. (2010) 6996, the content of which is incorporated herein by reference. Table 10 lists the EC50 values of certain compounds of Formula (Je) in the cAMP assay.
T2 sequence (P20272 whole entry): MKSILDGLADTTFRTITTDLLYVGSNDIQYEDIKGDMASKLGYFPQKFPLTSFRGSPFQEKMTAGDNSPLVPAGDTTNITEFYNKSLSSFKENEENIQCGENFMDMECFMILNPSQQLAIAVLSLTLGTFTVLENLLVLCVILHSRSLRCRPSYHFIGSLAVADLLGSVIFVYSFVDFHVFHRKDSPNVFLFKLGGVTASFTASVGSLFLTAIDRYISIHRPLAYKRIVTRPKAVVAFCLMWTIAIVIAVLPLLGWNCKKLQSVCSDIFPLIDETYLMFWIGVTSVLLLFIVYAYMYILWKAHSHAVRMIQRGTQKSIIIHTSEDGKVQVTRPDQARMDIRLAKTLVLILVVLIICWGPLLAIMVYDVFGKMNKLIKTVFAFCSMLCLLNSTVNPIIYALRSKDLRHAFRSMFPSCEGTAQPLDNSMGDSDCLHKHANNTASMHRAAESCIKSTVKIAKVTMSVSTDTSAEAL

Data set [2] deals with T3, hCB2 (Homo sapiens, UniProt P34972).
T3 construct: expressed in transfected cells; host or cells: HEK293
T3 sequence (P34972 whole entry): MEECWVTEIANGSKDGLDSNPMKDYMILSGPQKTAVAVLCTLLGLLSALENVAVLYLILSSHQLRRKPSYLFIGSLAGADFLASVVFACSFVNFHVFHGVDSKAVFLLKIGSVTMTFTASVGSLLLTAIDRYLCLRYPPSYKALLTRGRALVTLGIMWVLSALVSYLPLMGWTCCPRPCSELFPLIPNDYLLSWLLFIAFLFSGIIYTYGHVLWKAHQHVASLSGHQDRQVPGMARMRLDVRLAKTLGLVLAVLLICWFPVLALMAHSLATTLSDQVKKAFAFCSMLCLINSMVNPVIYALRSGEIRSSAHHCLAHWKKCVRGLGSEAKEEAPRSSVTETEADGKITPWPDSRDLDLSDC
As to the kind of experiment: cAMP assay, hCB2. Particulars: for Emax: cAMP assay. It is filed as cell-based. As for the experimental part:
as §4

Data set [3] addresses T2, rCB1. As to the kind of experiment: rCB1 competition-equilibrium binding with [3H]CP-55,940, rat brain membranes. Also on record: Frozen rat brains (CB1 source) are obtained from Pel-Freeze Biologicals; tissue Pel-Freeze Biologicals (Rogers, AK); host or cells: rat brain membranes. How it is done: Frozen rat brains (CB1 source) are obtained from Pel-Freeze Biologicals (Rogers, AK) and stored at −80° C. until use. Membranes are prepared according to the method described by Dodd et al. and used in our laboratory as reported.
as §2, §3

The target of data set [4] is T3, hCB2. As to the kind of experiment: hCB2 competition-equilibrium binding with [3H]CP-55,940, HEK293 membranes. How it is done:
as §1, §2, §3

In a further data set the test system is mice. In words: Analgesia assay, tail flick / tail immersion (FIG. 3B). The following applies: iso-active doses, compared with nabilone (AM10806) and AM10843. In kind it is in vivo, mouse. As for the experimental part: Some of the disclosed compounds were tested in vivo using two well defined rodent assays for cannabinergic activity, the analgesia and the hypothermia assays. The analgesia assay (tail immersion test) determines the ability of a test compound to activate cannabinergic signaling, through modulation of cannabinoid receptors, and thereby reduce nociceptive pain. The hypothermia test determines the ability of a test compound to act as a central CB1 agonist and decrease the body temperature. […] The details of both assays are described below.
Analgesia Assay. C57BL6/J mice (Jackson Laboratories, Bar Harbor Maine) were single housed at least 1 h before start of experiment. Food and water were removed immediately before the first injection.
Route of administration=i.p. Volume=1 mL/100 g body weight.
Tail withdrawal test: 52° C. water bath (use bags). Bag was made of stapled surgery sheets to form a small pocket the size of a mouse. […] The tip of the mouse's tail was dipped into the warm water, with 1 cm submerged.

The conditions of data set [5]: background statement; cited from earlier work.

The structures appear in SMILES notation. Read-outs that look alike come from different tables or passages of the source.

T1 sequence (P47936 whole entry): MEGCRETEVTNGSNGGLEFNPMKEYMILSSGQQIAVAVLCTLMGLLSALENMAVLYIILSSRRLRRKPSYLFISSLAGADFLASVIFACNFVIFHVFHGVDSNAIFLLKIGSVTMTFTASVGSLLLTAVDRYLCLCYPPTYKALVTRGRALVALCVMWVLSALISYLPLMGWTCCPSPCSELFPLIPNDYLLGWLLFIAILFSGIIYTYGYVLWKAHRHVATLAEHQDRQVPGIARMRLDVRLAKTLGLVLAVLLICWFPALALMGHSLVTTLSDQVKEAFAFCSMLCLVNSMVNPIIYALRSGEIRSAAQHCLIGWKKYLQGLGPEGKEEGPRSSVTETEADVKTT

Consider `CC(C)(C(=O)OCCCC#N)c1cc(O)c2c(c1)OC(C)(C)[C@@H]1CCC(=O)C[C@@H]21` [8 AM10811, 3-Cyanopropyl-2-((6aR,10aR)-1-hydroxy-6,6-dimethyl-9-oxo-6a,7,8,9,10,10a-hexahydro-6H-benzo[c]chromen-3-yl)-2-methylpropanoate], for which the “duration of hypothermic effect” value in the data set on rats is recorded as “shorter acting”. For the same compound, the results for the Ki at mCB2, on rCB1 [3] and on hCB2 [4] were 1.1 ± 0.4 nM, 0.7 ± 0.03 nM and 6.2 ± 2.7 nM, respectively. Further, the EC50 on rCB1 [1] amounted to 0.4 ± 0.06 nM; at hCB2 [2] it was 0.1 ± 0.03 nM. Also, the figures for the Emax on rCB1 [1] (cAMP assay) and at hCB2 [2] were 87% and 77%, respectively.
As to `CCCOC(=O)CC(C)(C)c1cc(O)c2c(c1)OC(C)(C)[C@@H]1CCC(=O)C[C@@H]21` [18 AM10819, Propyl-3-((6aR,10aR)-1-hydroxy-6,6-dimethyl-9-oxo-6a,7,8,9,10,10a-hexahydro-6H-benzo[c]chromen-3-yl)-3-methylbutanoate], the inhibition constant (Ki) worked out at 26 ± 3.6 nM on mCB2, 11 ± 1.4 nM at rCB1 [3] and 90 ± 11.3 nM on hCB2 [4]. In addition, the EC50 was 15.9 ± 3.6 nM at rCB1 [1] and 0.2 ± 0.09 nM at hCB2 [2]. The figures for the Emax at rCB1 [1] (cAMP assay) and at hCB2 [2] were 90% and 82%, respectively. Also, the “duration of analgesic effect (tail flick)” value in the data set with mice is on record as “shorter acting”.
For `CCCCOC(=O)C(C)(C)c1cc(O)c2c(c1)OC(C)(C)C1CCC(=O)CC21` (stereo not shown) [AM 10843], the results for the concentration for a half-maximal effect (EC50) at rCB1 [1] and at hCB2 [2] were 1 ± 0.3 nM and 1.1 ± 2.3 nM, respectively. Further, the Emax on rCB1 [1] (cAMP assay) is 83%; on hCB2 [2], 80%.
As for `CC(C)(C(=O)OCCCN=[N+]=[N-])c1cc(O)c2c(c1)OC(C)(C)[C@@H]1CCC(=O)C[C@@H]21` [Compound 9, 3-Azidopropyl-2-((6aR,10aR)-1-hydroxy-6,6-dimethyl-9-oxo-6a,7,8,9,10,10a-hexahydro-6H-benzo[c]chromen-3-yl)-2-methylpropanoate], the Ki at mCB2 turned out to be 4 nM; on rCB1 [3], 0.13 nM; on hCB2 [4], 3.1 nM. Besides, the EC50 is 0.2 nM on rCB1 [1] and 2.1 nM on hCB2 [2]. Moreover, the Emax at rCB1 [1] (cAMP assay) was determined as 52%; at hCB2 [2], 87%.
For the compound `CCCCCOC(=O)C(C)(C)c1cc(O)c2c(c1)OC(C)(C)[C@@H]1CCC(=O)C[C@@H]21` [Compound 34c, Pentyl 2-((6aR,10aR)-1-hydroxy-6,6-dimethyl-9-oxo-6a,7,8,9,10,10a-hexahydro-6H-benzo[c]chromen-3-yl)-2-methylpropanoate], the inhibition constant (Ki) at mCB2 came to 6.1 ± 1.1 nM; at rCB1 [3] it was 0.4 ± 0.01 nM; at hCB2 [4], 11.5 ± 1.6 nM. Also, the EC50 at rCB1 [1] came to 8.9 ± 2.3 nM; on hCB2 [2], 8.4 ± 1.8 nM. Besides, the Emax at rCB1 [1] (cAMP assay) came out at 94%; at hCB2 [2] it was 46%.
As to `CCC[C@@H](C)OC(=O)C(C)(C)c1cc(O)c2c(c1)OC(C)(C)[C@@H]1CCC(=O)C[C@@H]21` [Compound 34f, (R)-Pentan-2-yl 2-((6aR,10aR)-1-hydroxy-6,6-dimethyl-9-oxo-6a,7,8,9,10,10a-hexahydro-6H-benzo[c]chromen-3-yl)-2-methylpropanoate], the inhibition constant (Ki) is 36.4 ± 12.4 nM on mCB2, 4 ± 0.7 nM on rCB1 [3] and 7 ± 2.1 nM on hCB2 [4]. At rCB1 [1], this compound displayed an EC50 of 94.5 nM. The maximum response (Emax) on rCB1 [1] (cAMP assay) came out at 71%.
Take `CC(C)(C(=O)OCCCN1CCOCC1)c1cc(O)c2c(c1)OC(C)(C)[C@@H]1CCC(=O)C[C@@H]21` [Compound 34g, 3-Morpholinopropyl 2-((6aR,10aR)-1-hydroxy-6,6-dimethyl-9-oxo-6a,7,8,9,10,10a-hexahydro-6H-benzo[c]chromen-3-yl)-2-methylpropanoate]: the Ki on mCB2 (Table 9, Formula (Ie), read-out: mCB2 (Ki)) is 91.7 ± 20.4 nM; at rCB1 [3] (Table 9, Formula (Ie), read-out: rCB1 (Ki)), 17 ± 3.5 nM; on hCB2 [4] (Table 9, Formula (Ie), read-out: hCB2 (Ki)) it was 18.2 ± 4.1 nM. This compound also yielded an Emax at rCB1 [1] (cAMP assay) of 78%. In addition, the EC50 on rCB1 [1] (cAMP assay, read-out: rCB1 EC50) came to 4.2 nM.
On to `CCCCSC(=O)C(C)(C)c1cc(O)c2c(c1)OC(C)(C)[C@@H]1CCC(=O)C[C@@H]21` [Compound 34h, S-Butyl 2-((6aR,10aR)-1-hydroxy-6,6-dimethyl-9-oxo-6a,7,8,9,10,10a-hexahydro-6H-benzo[c]chromen-3-yl)-2-methylpropanethioate], for which the figures for the Ki on mCB2, at rCB1 [3] and on hCB2 [4] were 5 ± 1.4 nM, 0.7 ± 0.03 nM and 16 ± 2.4 nM, respectively. Also, the figures for the EC50 at rCB1 [1] and at hCB2 [2] were 0.2 ± 0.04 nM and 83.4 ± 4.7 nM, respectively. Besides, the Emax was 89% at rCB1 [1] (cAMP assay) and 72% on hCB2 [2].
Turning to `CCCCCc1cc(O)c2c(c1)OC(C)(C)[C@@H]1CCC(C)=C[C@@H]21` [Dronabinol], the “slow and erratic absorption” value in data set [5] was 2 to 6 h.

(Values after US11964956B2, “Cannabinergic compounds and uses thereof” (Northeastern University, priority 2012, dated 2024).)
